Assay: xn = mol fraction of the nth substance listed
Settings: 101.33 kPa

CC(N)CN (stereo not given) + OCCO
viscosity [mPa·s]
Settings | 298.15 K | 303.15 K | 308.15 K | 313.15 K | 318.15 K
x2 = 0.0513 | 1.89 | 1.66 | 1.4 | 1.33 | 1.23
x2 = 0.1024 | 2.46 | 2.17 | 1.8 | 1.69 | 1.53
x2 = 0.1534 | 3.22 | 2.9 | 2.34 | 2.19 | 1.98
x2 = 0.2043 | 4.66 | 3.91 | 3.1 | 2.84 | 2.51
x2 = 0.255 | 6.47 | 5.31 | 4.14 | 3.73 | 3.23
x2 = 0.3056 | 9.02 | 7.28 | 5.57 | 4.91 | 4.28
x2 = 0.356 | 12.47 | 9.89 | 7.43 | 6.42 | 5.39
x2 = 0.4064 | 17.12 | 13.17 | 9.78 | 8.33 | 6.89
x2 = 0.4566 | 22.35 | 17 | 12.38 | 10.39 | 8.36
x2 = 0.5066 | 27.55 | 20.91 | 15.09 | 12.54 | 10
x2 = 0.5565 | 32.68 | 24.47 | 17.48 | 14.47 | 11.46
x2 = 0.6063 | 36.17 | 26.99 | 19.26 | 15.91 | 12.62
x2 = 0.6556 | 37.44 | 28.04 | 20.15 | 16.67 | 13.25
x2 = 0.7055 | 36.53 | 27.76 | 20.09 | 16.66 | 13.32
x2 = 0.7549 | 34.46 | 26.24 | 19.07 | 15.99 | 12.78
x2 = 0.8042 | 32.78 | 24.03 | 17.71 | 14.9 | 11.97
x2 = 0.8533 | 28.17 | 21.54 | 15.99 | 13.67 | 11.17
x2 = 0.9024 | 24.94 | 18.68 | 14.07 | 12.16 | 10
x2 = 0.9512 | 20.88 | 16.21 | 12.23 | 10.67 | 8.83

— the CheMixHub viscosity set
